Source: patent publication US20160038468A1 (priority 2013, published 2016)
Values after ≈ are worked out from the molar mass of the structure shown. Read-outs that look alike come from different tables or passages of the source.

How the values were obtained:
Type in all cases: cell-based
Prevotella timonensis = test: Agar dilution MIC (CLSI), Prevotella timonensis vaginal isolates; details: number (%) of isolates; # tested 33
Finegoldia magna = test: Agar dilution MIC (CLSI), Finegoldia magna vaginal isolates; details: for MIC: read-out: Minimal Inhibitory Concentration (MIC); for Number of strains with indicated MIC: 20 samples
Peptoniphilus harei = test: Agar dilution MIC (CLSI), Peptoniphilus harei vaginal isolates; details: for Number of strains with indicated MIC: 23 samples; for MIC: read-out: Minimal Inhibitory Concentration (MIC)
[1] = test system: Megasphaera-like bacteria; test: Agar dilution MIC (CLSI), Megasphaera-like bacteria vaginal isolates; details: for MIC: read-out: Minimal Inhibitory Concentration (MIC); for Number of strains with indicated MIC: 25 samples
[2] = Peptoniphilus harei, # tested 23

Compound: CO[C@H]1/C=C/O[C@@]2(C)Oc3c(C)c(O)c4c(O)c(c5c(nc6cc(C)ccn65)c4c3C2=O)NC(=O)/C(C)=C\C=C\[C@H](C)[C@H](O)[C@@H](C)[C@@H](O)[C@@H](C)[C@H](OC(C)=O)[C@@H]1C [Rifaximin]
- Susceptible (Prevotella timonensis): 33 (100) μg/ml
- MIC Range (Finegoldia magna; # tested 20): 0.125 to 16 µg/mL
- MIC (Finegoldia magna; Finegoldia magna, isolate 301303V D): 4 µg/mL (≈ 5.09 µM)
- MIC (Finegoldia magna; Finegoldia magna, isolate 601205V 39): 4 µg/mL (≈ 5.09 µM)
- MIC (Finegoldia magna; Finegoldia magna, isolate 601214V F): 8 µg/mL (≈ 10.2 µM)
- MIC (Finegoldia magna; Finegoldia magna, isolate 601275V c): 0.125 µg/mL (≈ 0.159 µM)
- MIC (Finegoldia magna; Finegoldia magna, isolate 601276V 23): 4 µg/mL (≈ 5.09 µM)
- MIC (Finegoldia magna; Finegoldia magna, isolate 601283V 14): 4 µg/mL (≈ 5.09 µM)
- MIC (Finegoldia magna; Finegoldia magna, isolate 601293V 27): 4 µg/mL (≈ 5.09 µM)
- MIC (Finegoldia magna; Finegoldia magna, isolate 601295V 25): 4 µg/mL (≈ 5.09 µM)
- MIC (Finegoldia magna; Finegoldia magna, isolate 601298V 30): 4 µg/mL (≈ 5.09 µM)
- MIC (Finegoldia magna; Finegoldia magna, isolate 601308V 24): 2 µg/mL (≈ 2.54 µM)
- MIC (Finegoldia magna; Finegoldia magna, isolate 601315V 17): 8 µg/mL (≈ 10.2 µM)
- MIC (Finegoldia magna; Finegoldia magna, isolate 601315V 17A): 8 µg/mL (≈ 10.2 µM)
- MIC (Finegoldia magna; Finegoldia magna, isolate 601320V 24): 16 µg/mL (≈ 20.4 µM)
- MIC (Finegoldia magna; Finegoldia magna, isolate 601323V K): 4 µg/mL (≈ 5.09 µM)
- MIC (Finegoldia magna; Finegoldia magna, isolate 601330V c): 16 µg/mL (≈ 20.4 µM)
- MIC (Finegoldia magna; Finegoldia magna, isolate 601335V c1): 4 µg/mL (≈ 5.09 µM)
- MIC (Finegoldia magna; Finegoldia magna, isolate 601340V 27): 8 µg/mL (≈ 10.2 µM)
- MIC (Finegoldia magna; Finegoldia magna, isolate 601359V c): 2 µg/mL (≈ 2.54 µM)
- MIC (Finegoldia magna; Finegoldia magna, isolate 601363V 6): 0.25 µg/mL (≈ 0.318 µM)
- MIC (Finegoldia magna; Finegoldia magna, isolate 601367V c): 16 µg/mL (≈ 20.4 µM)
- MIC50 (Finegoldia magna; Finegoldia magna, # tested 20): 4 µg/mL (≈ 5.09 µM)
- MIC90 (Finegoldia magna; Finegoldia magna, # tested 20): 16 µg/mL (≈ 20.4 µM)
- Number of strains with indicated MIC (Finegoldia magna; MIC 8 μg/ml): 4
- Number of strains with indicated MIC (Finegoldia magna; MIC 16 μg/ml): 3
- Number of strains with indicated MIC (Finegoldia magna; MIC […]): 1
- Susceptible (Finegoldia magna; number (%) of isolates, # tested 20): 20 (100) μg/ml
- MIC Range (Peptoniphilus harei; # tested 23): 0.00375 to 0.03 µg/mL
- Number of strains with indicated MIC (Peptoniphilus harei; MIC 0.00375 μg/ml): 1
- Number of strains with indicated MIC (Peptoniphilus harei; MIC 0.0075 μg/ml): 15
- Number of strains with indicated MIC (Peptoniphilus harei; MIC 0.015 μg/ml): 6
- Number of strains with indicated MIC (Peptoniphilus harei; MIC 0.03 μg/ml): 1
- MIC (Peptoniphilus harei; Peptoniphilus harei, isolate 426868V D): 0.0075 µg/mL (≈ 0.00954 µM)
- MIC (Peptoniphilus harei; Peptoniphilus harei, isolate 601098V Q): 0.0075 µg/mL (≈ 0.00954 µM)
- MIC (Peptoniphilus harei; Peptoniphilus harei, isolate 601203V 8): 0.0075 µg/mL (≈ 0.00954 µM)
- MIC (Peptoniphilus harei; Peptoniphilus harei, isolate 601212V 15): 0.0075 µg/mL (≈ 0.00954 µM)
- MIC (Peptoniphilus harei; Peptoniphilus harei, isolate 601233V R): 0.03 µg/mL (≈ 0.0382 µM)
- MIC (Peptoniphilus harei; Peptoniphilus harei, isolate 601248V 23): 0.0075 µg/mL (≈ 0.00954 µM)
- MIC (Peptoniphilus harei; Peptoniphilus harei, isolate 601259V 11): 0.015 µg/mL (≈ 0.0191 µM)
- MIC (Peptoniphilus harei; Peptoniphilus harei, isolate 601289V C): 0.0075 µg/mL (≈ 0.00954 µM)
- MIC (Peptoniphilus harei; Peptoniphilus harei, isolate 601293V 21): 0.0075 µg/mL (≈ 0.00954 µM)
- MIC (Peptoniphilus harei; Peptoniphilus harei, isolate 601302V F1): 0.015 µg/mL (≈ 0.0191 µM)
- MIC (Peptoniphilus harei; Peptoniphilus harei, isolate 601311V R): 0.00375 µg/mL (≈ 0.00477 µM)
- MIC (Peptoniphilus harei; Peptoniphilus harei, isolate 601326V F): 0.015 µg/mL (≈ 0.0191 µM)
- MIC (Peptoniphilus harei; Peptoniphilus harei, isolate 601342V F): 0.0075 µg/mL (≈ 0.00954 µM)
- MIC (Peptoniphilus harei; Peptoniphilus harei, isolate 601355V D): 0.015 µg/mL (≈ 0.0191 µM)
- MIC (Peptoniphilus harei; Peptoniphilus harei, isolate 601365V 14): 0.0075 µg/mL (≈ 0.00954 µM)
- MIC (Peptoniphilus harei; Peptoniphilus harei, isolate 601374V F): 0.015 µg/mL (≈ 0.0191 µM)
- MIC (Peptoniphilus harei; Peptoniphilus harei, isolate 601388V Q): 0.0075 µg/mL (≈ 0.00954 µM)
- MIC (Peptoniphilus harei; Peptoniphilus harei, isolate 601399V 16): 0.0075 µg/mL (≈ 0.00954 µM)
- MIC (Peptoniphilus harei; Peptoniphilus harei, isolate 601409V L): 0.0075 µg/mL (≈ 0.00954 µM)
- MIC (Peptoniphilus harei; Peptoniphilus harei, isolate 601413V 16): 0.0075 µg/mL (≈ 0.00954 µM)
- MIC (Peptoniphilus harei; Peptoniphilus harei, isolate 601426V D): 0.0075 µg/mL (≈ 0.00954 µM)
- MIC (Peptoniphilus harei; Peptoniphilus harei, isolate 601430V 22): 0.015 µg/mL (≈ 0.0191 µM)
- MIC (Peptoniphilus harei; Peptoniphilus harei, isolate 601539V 25B): 0.0075 µg/mL (≈ 0.00954 µM)
- MIC50 (Peptoniphilus harei; [2]): 0.0075 µg/mL (≈ 0.00954 µM)
- MIC90 (Peptoniphilus harei; [2]): 0.015 µg/mL (≈ 0.0191 µM)
- MIC ([1]; 427510 h, isolate 427507 H): 0.015 µg/mL (≈ 0.0191 µM)
- MIC50 ([1]; # tested 25): 0.015 µg/mL (≈ 0.0191 µM)
- MIC90 ([1]; # tested 25): 0.015 µg/mL (≈ 0.0191 µM)
- MIC Range ([1]; # tested 25): 0.0075 to 0.015 µg/mL
- Number of strains with indicated MIC ([1]; MIC 0.0075 μg/ml): 3
- Number of strains with indicated MIC ([1]; MIC 0.015 μg/ml): 22
- MIC ([1]; isolate 426749 T): 0.0075 µg/mL (≈ 0.00954 µM)
- MIC ([1]; isolate 426766 Q): 0.015 µg/mL (≈ 0.0191 µM)
- MIC ([1]; isolate 426788 8a): 0.015 µg/mL (≈ 0.0191 µM)
- MIC ([1]; isolate 426788 C): 0.015 µg/mL (≈ 0.0191 µM)
- MIC ([1]; isolate 427470 10): 0.015 µg/mL (≈ 0.0191 µM)
- MIC ([1]; isolate 427490 2u): 0.015 µg/mL (≈ 0.0191 µM)
- MIC ([1]; isolate 427509 A): 0.015 µg/mL (≈ 0.0191 µM)
- MIC ([1]; isolate 427522 8): 0.015 µg/mL (≈ 0.0191 µM)
- MIC ([1]; isolate 600770 O): 0.015 µg/mL (≈ 0.0191 µM)
- MIC ([1]; isolate 600790 N): 0.015 µg/mL (≈ 0.0191 µM)
- MIC ([1]; isolate 600796 V): 0.015 µg/mL (≈ 0.0191 µM)
- MIC ([1]; isolate 600831 9): 0.015 µg/mL (≈ 0.0191 µM)
- MIC ([1]; isolate 600837 18): 0.015 µg/mL (≈ 0.0191 µM)
- MIC ([1]; isolate 600861 P): 0.015 µg/mL (≈ 0.0191 µM)
- MIC ([1]; isolate 602236 E3): 0.007 µg/mL (≈ 0.00891 µM)
- MIC ([1]; isolate 602241 D): 0.015 µg/mL (≈ 0.0191 µM)
- MIC ([1]; isolate 602241 F): 0.015 µg/mL (≈ 0.0191 µM)
- MIC ([1]; isolate 602270 A): 0.015 µg/mL (≈ 0.0191 µM)
- MIC ([1]; isolate 602282 I): 0.015 µg/mL (≈ 0.0191 µM)
- MIC ([1]; isolate 602288 16): 0.015 µg/mL (≈ 0.0191 µM)
- MIC ([1]; isolate 602302 22): 0.015 µg/mL (≈ 0.0191 µM)
- MIC ([1]; isolate 602305 I): 0.015 µg/mL (≈ 0.0191 µM)
- MIC ([1]; isolate 602324 8): 0.0075 µg/mL (≈ 0.00954 µM)
- MIC ([1]; isolate 602672 12A): 0.015 µg/mL (≈ 0.0191 µM)
